Key:
[1] = test system: Human T-lymphoblastic leukemia cell line CEM; test: In vitro cytotoxic activity, Calcein AM assay, CEM; format: cell-based; conditions: 72 hours
Source text: (§1) One of the parameters used, as the basis for cytotoxicity assays, is the metabolic activity of viable cells. For example, a microtiter assay, which uses the Calcein AM, is now widely used to quantitate cell proliferation and cytotoxicity. For instance, this assay is used in drug screening programs and in chemosensitivity testing. Because only metabolically active cells cleave Calcein AM, these assays detect viable cells exclusively. The quantity of reduced Calcein AM corresponds to the number of vital cells in the culture.
(§2) Human T-lymphoblastic leukemia cell line CEM; promyelocytic HL-60 and monocytic U937 leukemias; breast carcinoma cell lines MCF-7; cervical carcinoma cells HELA; mouse fibroblasts NIH3T3; human erythroleukaemia K562 and human malignant melanoma cells G361 were used for routine screening of compounds. The cells were maintained in Nunc/Corning 80 cm^2 plastic tissue culture flasks and cultured in cell culture medium (DMEM with 5 g/l glucose, 2 mM glutamine, 100 U/ml penicillin, 100 μg/ml streptomycin, 10% fetal calf serum and sodium bicarbonate).
(§3) The cell suspensions that were prepared and diluted according to the particular cell type and the expected target cell density (10^4 cells per well based on cell growth characteristics) were added by pipette (80 μl) into 96/well microtiter plates. Inoculates were allowed a pre-incubation period of 24 hours at 37° C. and 5% CO2 for stabilisation. Four-fold dilutions of the intended test concentration were added at time zero in 20 μl aliquots to the microtiter plate wells. Usually, test compound was evaluated at six 4-fold dilutions. In routine testing, the highest well concentration was 166.7 μM, but it can be the matter of change dependent on the agent. All drug concentrations were examined in duplicates. Incubations of cells with the test compounds lasted for 72 hours at 37° C., in 5% CO2 atmosphere and 100% humidity. At the end of incubation period, the cells were assayed by using the Calcein AM. Ten microliters of the stock solution were pipetted into each well and incubated further for 1 hours. Fluorescence (FD) was measured with the Labsystem FIA Reader Fluoroscan Ascent (UK). The tumour cell survival (GI50) was calculated using the following equitation: GI50=(FDdrug exposed well/mean FDcontrol wells)×100%. The GI50 value, the drug concentration lethal to 50% of the tumour cells, was calculated from the obtained dose response curves (FIG. 3).

[2] = test system: Triticum aestivum cv. Hereward; test: Senescence inhibition on winter wheat leaf segments (chlorophyll retention); format: in vivo; conditions: for Concentration with highest activity: chlorophyll retention in excised wheat leaf tips, 96 h dark; for Activity (%) [10^−4 mol · l^−1 BAP = 100%]: chlorophyll retention, at concentration with highest activity
Procedure: Seeds of winter wheat, Triticum aestivum cv. Hereward, were washed under running water for 24 hours and then sown on vermiculite soaked with Knop's solution. They were placed in the grown chamber at 15° C. with a 16/8 h light period at 50 μmol·m^−2·s^−1. After 7 days, the first leaf was fully developed and the second leaf had started to grow. A tip section of the first leaf, approximately 35 mm long, was removed from 5 seedlings and trimmed slightly to a combined weight of 100 mg. The basal ends of the five leaf tips were placed in the wells of a microtiter polystyrene plate containing 150 μl of a cytokinin solution each. The entire plate was inserted into a plastic box lined with paper tissues soaked in distilled water to prevent leaf sections from drying out. After a 96 h incubation in the dark at 25° C., the leaves were removed and chlorophyll extracted by heating at 80° C. for 10 min in 5 ml of 80% ethanol (v/v). The sample volume was then restored to 5 ml by the addition of 80% ethanol (v/v). The absorbency of the extract was recorded at 665 nm. In addition, chlorophyll extracts from fresh leaves and leaf tips incubated in deionised water were measured. From the obtained data, the concentration with highest activity was selected for each compound tested. Relative activity of the compound at this concentration was calculated (Tab. 10). The activity obtained for 10^−4 M 6-benzylaminopurine (BAP) was postulated as 100%. The values shown are means of five replicates and the whole experiment was repeated twice. The cytokinins to be tested were dissolved in dimethylsulfoxide (DMSO) and the solution brought up to 10^−3M with distilled water. This stock was further diluted in distilled water to concentrations ranging from 10^−8M to 10^−4M.

[3] = test system: breast carcinoma cell lines MCF-7; test: In vitro cytotoxic activity, Calcein AM assay, MCF7; format: cell-based, human; conditions: 72 hours, read-out: IC 50 MCF7
Source text: as §1, §2, §3

[4] = test system: human erythroleukaemia K562; test: In vitro cytotoxic activity, Calcein AM assay, K-562; format: cell-based; conditions: 72 hours, read-out: IC 50 K-562
Source text: as §1, §2, §3

HOS = test: In vitro cytotoxic activity, Calcein AM assay, HOS; format: cell-based; conditions: 72 hours
promyelocytic HL-60 = test: In vitro cytotoxic activity, Calcein AM assay, HL60; format: cell-based, human; conditions: 72 hours, read-out: IC 50 HL60
Source text: as §1, §2, §3

mouse fibroblasts NIH3T3 = test: In vitro cytotoxic activity, Calcein AM assay, NIH-3T3; format: cell-based; conditions: 72 hours, read-out: IC 50 NIH-3T3
Source text: as §1, §2, §3

[5] = test system: Amaranthus caudatus cotyledon/hypocotyl explants; test: Amaranthus bioassay (betacyanin content); format: in vivo; conditions: for Concentration with highest activity: 48 h dark; for Activity (%) [10^−5 mol · l^−1 BAP = 100%]: at concentration with highest activity
Procedure: Standard Amaranthus bioassay was performed with several modifications. The seeds of Amaranthus caudatus var. atropurpurea were surface-sterilised in 10% N-chlorobenzenesulfonamide (w/v) for 10 min and washed 5 times in deionized water. They were placed in 15 cm Petri dishes containing paper tissues saturated with deionized water. After 72 h of cultivation at 25° C. in darkness, the roots of the seedlings were cut off. The explants, consisting of two cotyledons and hypocotyls, were placed in 5 cm Petri dishes on two layers of filter paper soaked in 1 ml of incubation medium containing 10 μmol NA2HPO4-KH2PO4, pH 6.8, 5 μmol tyrosine and the cytokinin to be tested. There were 20 explants per dish. The procedure was carried out under a green safe light in a darkroom. After a 48 h of incubation at 25° C. in darkness, betacyanin was extracted by freezing the explants in 4 ml […] acetic acid. The concentration of betacyanin was determined by comparing the absorbance at 537 nm and 620 nm as follows: ΔA=[…]-[…]. From the obtained data, the concentration with highest activity was selected for each compound tested. Relative activity of the compound at this concentration was calculated (Tab. 12). […] The values shown in table 8 are means of five replicates and the entire test was repeated twice. The cytokinins to be tested were dissolved in dimethylsulfoxide (DMSO) and the solution brought up to 10^-3M with distilled water. This stock was further diluted in the respective media used for the biotest to concentrations ranging from 10^-8M to 10^-4M. […] From the data obtained (FIG. 14) the maximum effective concentration of the tested compound was calculated as well as its relative effectiveness at this concentration (Table 12). […]

SMILES	IC50 [1] [µM]	Concentration with highest activity [2]	Activity (%) [10^−4 mol · l^−1 BAP = 100%] [2] [%]	IC50 [3] [µM]	IC50 [4] [µM]	IC50 (HOS) [µM]	IC50 (promyelocytic HL-60) [µM]	IC50 (mouse fibroblasts NIH3T3) [µM]	Concentration with highest activity [5]	Activity (%) [10^−5 mol · l^−1 BAP = 100%] [5] [%]
OC[C@H]1O[C@@H](n2cnc3c(NCc4ccc(F)c(F)c4F)ncnc32)[C@H](O)[C@@H]1O [2,3,4-trifluorobenzylamino, 6-(2,3,4-trifluorobenzylamino)purine riboside]	58.2	10^−4 mol · l^−1	144 ± 12	> 167	> 167	> 167	13	> 167		
COc1ccc(CNc2ncnc3c2ncn3[C@@H]2O[C@H](CO)[C@@H](O)[C@H]2O)c(OC)c1 [2,4-dimethoxybenzylamino, 6-(2,4-dimethoxybenzylamino)purine riboside]	> 167			> 167	> 167	> 167	39	> 167	10^−5 mol · l^−1	3 ± 3
COc1ccc(CNc2ncnc3c2ncn3[C@@H]2O[C@H](CO)[C@@H](O)[C@H]2O)cc1OC [3,4-dimethoxybenzylamino, 6-(3,4-dimethoxybenzylamino)purine riboside]		10^−4 mol · l^−1	47 ± 6						10^−4 mol · l^−1	2 ± 1
COc1cc(CNc2ncnc3c2ncn3[C@@H]2O[C@H](CO)[C@@H](O)[C@H]2O)cc(OC)c1 [3,5-dimethoxyxybenzylamino, 6-(3,5-dimethoxybenzylamino)purine riboside]				> 167	> 167	> 167	18.8	> 167		
O=[N+]([O-])c1cccc(CNc2ncnc3c2ncn3[C@@H]2O[C@H](CO)[C@@H](O)[C@H]2O)c1 [3-nitrobenzylamino, 6-(3-nitrobenzylamino)purine riboside]									10^−4 mol · l^−1	66 ± 7
O=[N+]([O-])c1ccc(CNc2ncnc3c2ncn3[C@@H]2O[C@H](CO)[C@@H](O)[C@H]2O)cc1 [4-nitrobenzylamino, 6-(4-nitrobenzylamino)purine riboside]									10^−4 mol · l^−1	25 ± 3
OCC1OC(n2cnc3c(NCc4ccccc4Cl)nc(Cl)nc32)C(O)C1O (centres unmarked) [R2 = Cl, 2-chlorobenzylamino]	8.5			> 167	61	> 167	1.2	> 167		
OCC1OC(n2cnc3c(NCc4ccccc4F)nc(Cl)nc32)C(O)C1O (centres unmarked) [R2 = Cl, 2-fluorobenzylamino]	4.2			> 167	30	> 167	2.5			
OC[C@H]1O[C@@H](n2cnc3c(NCc4cccc(Cl)c4)nc(Cl)nc32)[C@H](O)[C@@H]1O [R2 = Cl, 3-chlorobenzylamino]	1.1			> 167	28	> 167	0.6	> 167		
OCC1OC(n2cnc3c(NCc4ccc(Cl)cc4)nc(Cl)nc32)C(O)C1O (centres unmarked) [R2 = Cl, 4-chlorobenzylamino]	5.8			> 167	15	> 167	5	> 167		
OC[C@H]1O[C@@H](n2cnc3c(NCc4ccc(F)cc4)nc(Cl)nc32)[C@H](O)[C@@H]1O [R2 = Cl, 4-fluorobenzylamino]	1.5			12	5.8	19	0.7	> 167		
Nc1nc(NCc2ccccc2Cl)c2ncn(C3OC(CO)C(O)C3O)c2n1 (centres unmarked) [R2 = NH2,2-chlorobenzylamino]	24.7			> 167	78	> 167	10.3	> 167		
Nc1nc(NCc2ccccc2F)c2ncn([C@@H]3O[C@H](CO)[C@@H](O)[C@H]3O)c2n1 [R2 = NH2,2-fluorobenzylamino]	14.5			> 167	45	> 167	8.7			
Nc1nc(NCc2cccc(Cl)c2)c2ncn([C@@H]3O[C@H](CO)[C@@H](O)[C@H]3O)c2n1 [R2 = NH2,3-chlorobenzylamino]	10.2			> 167	43	> 167	5.8	> 167		
Nc1nc(NCc2ccc(F)cc2)c2ncn([C@@H]3O[C@H](CO)[C@@H](O)[C@H]3O)c2n1 [R2 = NH2,4-fluorobenzylamino]	12.1			25	13	43	2.9	> 167		
CSc1nc(NCc2ccccc2Cl)c2ncn([C@@H]3O[C@H](CO)[C@@H](O)[C@H]3O)c2n1 [R2 = SCH3,2-chlorobenzylamino]	14.6			> 167	78	> 167	7.4	> 167		
CSc1nc(NCc2ccccc2F)c2ncn([C@@H]3O[C@H](CO)[C@@H](O)[C@H]3O)c2n1 [R2 = SCH3,2-fluorobenzylamino]	9.7			> 167	42	> 167	11.4			
CSc1nc(NCc2cccc(Cl)c2)c2ncn([C@@H]3O[C@H](CO)[C@@H](O)[C@H]3O)c2n1 [R2 = SCH3,3-chlorobenzylamino]	13.2			> 167	35	> 167	6.1	> 167		
